The text below walks through data of PMC11181322, “Copper(II) Complexes with Isomeric Morpholine-Substituted 2-Formylpyridine Thiosemicarbazone Hybrids as Potential Anticancer Drugs Inhibiting Both Ribonucleotide Reductase and Tubulin Polymerization: The Morpholine Position Matters” (Journal of Medicinal Chemistry, 2024).

Each structure is given as a SMILES string. Like-named read-outs stand apart in the source and are kept apart here.

Details of data set [1]: method as in PMID 32336116. The settings on record: copper(II) complexes of the named TSCs, measured under similar conditions ref 67; cited from earlier work.
Data set [2] can be described thus: Proton dissociation constants (pKa) of the proligands by pH-potentiometry, UV–vis and 1H NMR titrations. The settings on record: 30% (v/v) DMSO/H2O solvent mixture, I = 0.1 M (KCl), t = 25 °C. Format: physicochemical. The method, then:
(§1) The path length was 1 cm.
^1H NMR spectroscopic studies were carried out on a Bruker Avance III HD instrument. All spectra were recorded with the WATERGATE water suppression pulse scheme using sodium trimethylsilylpropanesulfonate as internal standard.

The test system of data set [3] is MES-SA cells. The data set is described as follows: Fluorescent protein-based cytotoxicity assay, MES-SA. Format: cell-based, human. Conditions: 120 h, ± SD, n = 3. An excerpt:
(§2) The cytotoxic activity of proligands H2L^3–H2L^6 and their copper(II) complexes 3–6 was investigated in the MES-SA (human uterine sarcoma) and in its MDR counterpart (MES-SA/Dx5) cell lines by a fluorescent protein-based assay.[73]
(§3) The human uterine sarcoma cell lines MES-SA and the doxorubicin selected MES-SA-Dx5 were obtained from ATCC (MES-SA: No. CRL-1976, MES-SA/Dx5: No. CRL-1977) and were used for the intracellular ROS generation studies. For cytotoxicity, we used the fluorescent cell lines MES-SA mCherry and MES-SA/Dx5 eGFP, which were created by lentiviral transductions of the respective genes.[73] The phenotype of the resistant cells was maintained by 500 nM doxorubicin treatment a week before use and was verified using cytotoxicity assays. Cells were cultivated at 37 °C, 5% CO2 in Dulbecco’s modified Eagle's Medium (DMEM, Sigma-Aldrich), supplemented with 10% fetal bovine serum, 5 mM glutamine, and 50 unit/mL penicillin and streptomycin (Thermo Fisher).
(§4) MES-SA mCherry and MES-SA/Dx5 eGFP cell suspensions were seeded after trypsinization at 2500 cells/20 μL density on 384-well plates, containing 20 μL of completed medium. The next day, serial dilution of the compounds was prepared and added in an additional 20 μL, with or without 0.4 μM Tariquidar. Liquid handling steps were performed by a Hamilton StarLet robot. […] The mean and standard deviation of the pIC50 values were calculated and converted to IC50 values.

The subject of data set [4] is MES-SA/Dx5 cells. The data set is described as follows: Fluorescent protein-based cytotoxicity assay, MES-SA/Dx5. Format: cell-based, human. Conditions: for IC50: 120 h, ± SD, n = 3; for SR, selectivity ratio IC50 (MES-SA)/IC50 (MES-SA/Dx5): in the absence of TQ.
Excerpt: as §2, §3, §4

In data set [5] the target is T1, mR2 RNR protein (Mus musculus, UniProt P11157).
T1 construct: made in house
T1 sequence (P11157 1-390): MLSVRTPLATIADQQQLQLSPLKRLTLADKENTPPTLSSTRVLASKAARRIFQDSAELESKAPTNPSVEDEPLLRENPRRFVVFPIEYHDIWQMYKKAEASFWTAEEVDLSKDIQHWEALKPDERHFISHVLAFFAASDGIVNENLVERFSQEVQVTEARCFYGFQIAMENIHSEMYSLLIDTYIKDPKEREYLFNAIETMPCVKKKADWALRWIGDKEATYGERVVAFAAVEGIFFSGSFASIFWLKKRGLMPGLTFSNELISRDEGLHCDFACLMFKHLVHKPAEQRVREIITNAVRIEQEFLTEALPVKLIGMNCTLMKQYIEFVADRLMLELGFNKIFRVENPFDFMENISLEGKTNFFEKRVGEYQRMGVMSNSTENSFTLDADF
The data set is described as follows: Tyrosyl radical reduction in mR2 RNR protein (EPR). Format: biochemical. The settings on record: 20 μM mR2, 1:1 protein-to-drug. The method, then:
Since α-N-heterocyclic TSCs are very potent R2 RNR inhibitors, the time-dependent Y^• reduction of the mR2 RNR protein was measured. The effect of equimolar concentrations of the proligands H2L^3–H2L^6 and their copper(II) complexes 3–6, in the absence and presence of an external reductant DTT, is shown in Figure 7.
Figure 7 Tyrosyl radical reduction kinetics of mR2 RNR (20 μM) in the absence (triangles) and in the presence (circles) of an external reductant (2 mM DTT) at the 1:1 protein-to-drug ratio, measured by EPR spectroscopy at 30 K, for (a) H2L^3 (black), H2L^4 (red), H2L^5 (blue), and H2L^6 (green) and for (b) 3 (black), 4 (red), 5 (blue), and 6 (green).
Samples containing 20 μM mR2 in 50 mM HEPES buffer, pH 7.5/100 mM NaCl, 20 μM compound in 1% (v/v) DMSO/H2O, in the absence or presence of 2 mM DTT, were incubated for indicated times and quickly frozen in cold isopentane. The same samples were used for repeated incubations at room temperature. The experiments were performed in duplicate.

The conditions of data set [6]: calculated at pH 7.4, aqueous solution ref 69, 52; cited from earlier work.
Data set [7] in a line: Conditional stability constants of the copper(II) complexes by EDTA displacement (UV–vis). Format: physicochemical. The method, then:
The stability constants of 3–6 were determined by EDTA competition experiments monitored by UV–vis spectrophotometry at pH 5.9, where the [Cu(HL)]^+ species is dominant. Since the displacement of the TSC ligand by EDTA is relatively slow, a 2 h reaction time was used to reach equilibrium. Upon increasing the concentration of EDTA, the absorbance of the characteristic S → Cu charge transfer band at 400–416 nm decreased (see, for example, Figure 3 for the copper(II)–H2L^4 (1:1) system).[68] The experiments were performed in both aqueous solution and the 30% (v/v) DMSO/H2O solvent mixture. The determined conditional (apparent) formation constants (log K′5.9) are rather similar (see Table 2) in both media. However, the values are lower in the DMSO/H2O solvent mixture than in aqueous solution, presumably due to coordination of DMSO to copper(II). An analogous observation was reported for the copper(II) complex of Triapine.[67] […] To compare the copper(II) binding ability of the studied TSCs H2L^3–H2L^6 at pH 5.9 (at which the conditional constants were determined), pCu (−log [Cu(II)]) values were also computed using the experimentally determined equilibrium constants (Table 2). The higher pCu value indicates a stronger metal ion binding ability of the ligand under given circumstances. The ligands form complexes with fairly similar stability, in agreement with the conditional stability constants. […] A similar behavior was reported for aqueous solutions of the N-terminally dimethylated derivative of the 2-pyridinecarboxaldehyde TSC (PTSC)[69] and for the corresponding morpholine-hybrid Morph-dm-FTSC.[52] In particular, the calculated pCu values were also very close, 13.17 for PTSC vs 13.08 for Morph-dm-FTSC calculated at pH 7.4.
as §1

Data set [8] can be described thus: Redox reaction of the copper(II) complexes with GSH (UV–vis, anoxic). Format: physicochemical. Conditions: pH 7.4 (50 mM HEPES); ccomplex = 25 μM; cGSH = 1.25 mM; pure water; 25 °C. An excerpt:
The direct reduction of the copper(II) complexes with the antioxidant GSH was investigated in anoxic aqueous solution at pH 7.4 by UV–vis spectrophotometry. At this pH, the complex [Cu(HL)]^+ is assumed to predominate according to the speciation studies (vide supra). The spectral changes were monitored in the wavelength range 250–550 nm by using a large excess of GSH (50 equiv). In this wavelength range, the spectral changes are due to the absorption of the metal complex and the ligand.
These changes imply that, after reduction in the presence of excess GSH, the generated copper(I) complex is not stable and liberates the free TSC ligand. […] The time-dependent absorbance changes are shown for all the studied systems in Figure 4b. The observed rate constants (kobs) were calculated (Table 2) as a semiquantitative description of the reaction kinetics. […] The obtained kobs values fall into the range for Triapine (0.10 min^–1), 2-pyridinecarboxaldehyde TSC (0.041 min^–1), and N-monomethylated N-methyl-Triapine (0.077 min^–1), measured under similar conditions.[67] To find out whether this slightly different kinetics for 6 and 3–5 is in accordance with their reduction potentials, cyclic voltammetry was performed.
The redox reaction of the copper(II) complexes with GSH and ascorbic acid was studied at 25.0 ± 0.1 °C on a Hewlett-Packard 8452A diode array spectrophotometer using a special, tightly closed tandem cuvette (Hellma Tandem Cell, 238-QS). The reactants were separated until the reaction was triggered. Both isolated pockets of the cuvette were completely deoxygenated by bubbling a stream of Ar for 10 min before mixing the reactants. Spectra were recorded before and then immediately after the mixing, and changes were followed until no further absorbance change was observed. One of the isolated pockets contained the reducing agent, and the other contained the complex. Their final concentrations were 1250 and 25 μM, respectively. The pH of all the solutions was adjusted to 7.40 by 50 mM HEPES buffer. The ionic strength of the solution was 0.1 M (KCl). The stock solutions of the reducing agents and the complexes were freshly prepared every day. During the calculations, the absorbance (A) – time (t) curves were fitted and analyzed at the λmax of the complex. (A0 – Afinal) × e^(−a×t) + Afinal was the fitting equation used, where the A0, Afinal, and a parameters were refined and accepted at the minimal value of the weighted sum of squared residuals (difference between the measured and calculated absorbance values) at the given wavelength. Then, observed rate constants (kobs) of the redox reaction were obtained from the data points of the simulated absorbance–time curves as the slope of the ln(A/A0) vs time plots.

Data set [9] can be described thus: Cyclic voltammetry of copper(II) complexes in DMSO/n-Bu4NPF6. In kind it is physicochemical. How it is done:
The redox properties of the copper(II) complexes 3–6 were investigated by electrochemical, EPR, and UV–vis spectroelectrochemical measurements. […] While the half-wave reduction potentials E1/2^red for complexes 3–5 were almost the same (−0.82 V vs Fc^+/Fc), the E1/2^red for 6 is by 0.07 V more positive (−0.75 V vs Fc^+/Fc), as summarized in Table 4. The corresponding proligands are not redox active in the cathodic part (not shown).
Cyclic voltammetric experiments with 0.5 mM solutions of copper(II) complexes 3–6 in 0.1 M nBu4NPF6 (puriss quality from Fluka; dried under reduced pressure at 70 °C for 24 h before use) as supporting electrolyte in DMSO (SeccoSolv max. 0.025% H2O, Merck) were performed under Ar using a three-electrode arrangement with Pt wire as the counter electrode and Ag wire as the pseudoreference electrode. Glassy carbon or Pt wire served as the working electrode. Ferrocene purchased from Sigma-Aldrich was used as the internal potential standard without further purification. All potentials in voltammetric studies were quoted vs ferricenium/ferrocene (Fc^+/Fc) as the redox couple. A Heka PG310USB (Lambrecht, Germany) potentiostat with a PotMaster 2.73 software package served for the potential control in voltammetric studies. In situ ultraviolet–visible-near-infrared (UV–vis–NIR) spectroelectrochemical measurements were performed on a spectrometer (Avantes, Model AvaSpec-2048 × 14-USB2 in the spectroelectrochemical cell kit ([…]3) with the Pt-microstructured honeycomb working electrode, purchased from Pine Research Instrumentation. The cell was positioned in the CUV-UV Cuvette Holder (Ocean Optics) connected to the diode array UV–vis-NIR spectrometer by optical fibers. UV–vis-NIR spectra were processed using the AvaSoft 7.7 software package. Halogen and deuterium lamps were used as light sources (Avantes, Model AvaLight-DH-S-BAL).

The test system of data set [10] is purified tubulin. Put plainly: Inhibition of polymerization of purified tubulin. Format: biochemical. Conditions: read-out: inhibition of tubulin IC50 ± SD.
Data set [11] relates to tubulin. Put plainly: Inhibition of [3H]colchicine binding to tubulin. Conditions: for inhibition of colchicine binding % inhibition ± SD: tubulin 0.5 μM, colchicine 5 μM.

For `NC(=S)N/N=C/c1ccccn1` [2-pyridinecarboxaldehyde TSC], in [1], the “kobs, reduction by GSH” value is 0.041 min^–1.

Turning to `Cc1cc(NC(=S)N/N=C/c2ncccc2CN2CCOCC2)cc(C)c1O` [H2L^3], the pKa in data set [2] (UV–vis spectrophotometry, read-out: pKa1) is 1.53 ± 0.01; in data set [2] (pH–potentiometry, read-out: pKa1), less than 2; in [2] (pH–potentiometry, read-out: pKa2), 5.62 ± 0.06; in data set [2] (pH–potentiometry, read-out: pKa3) it was greater than 10.5. For the same compound, the IC50 in data set [3] (Homo sapiens, MES-SA) turned out to be 2.9 ± 0.4 µM; in [4] (Homo sapiens, MES-SA/Dx5) it was 13.1 ± 3.2 µM. Further, in [4], the “SR, selectivity ratio IC50 (MES-SA)/IC50 (MES-SA/Dx5)” value was determined as 0.22. Besides, the “Y• reduced in mR2 protein” value is listed as roughly 70% in [5] (after 15 min, in the presence of 2 mM DTT) and “ca. 20%” in data set [5] (without DTT).

In the case of `CN(C)C(=S)NN=Cc1ccccn1` [PTSC], in [6], the pCu is 13.17.

As to `Cc1cc(NC(=NN=Cc2ncccc2CN2CCOCC2)[S][Cu][Cl])cc(C)c1O` [complex 3, [Cu(HL^3)Cl]·H2O], in [7] (EDTA displacement, UV–vis, pH 5.9, 30% (v/v) DMSO/H2O, 25 °C), the “logK′5.9 (DMSO/H2O)” value is listed as 10.33 ± 0.01. Moreover, the “logK′5.9 (H2O)” value in data set [7] (EDTA displacement, UV–vis, pH 5.9, water, I = 0.1 M (KCl), 25 °C) is 13.82 ± 0.04. Moreover, the “pCu5.9 (=–log[Cu(II)])” value in data set [7] (calcd. at pH 5.9, cL = cCu(II) = 1 μM) was 8.20. For the same compound, the “kobs, redox reaction with GSH” value in data set [8] is 0.059 ± 0.004 min^–1. For the same compound, the “Epa^1” value in data set [9] (first anodic peak potential vs Fc+/Fc, 100 mV s^–1) is reported as “+0.27 V”. Also, the “Epa^2” value in data set [9] (second anodic peak potential vs Fc+/Fc, 100 mV s^–1) is “+0.79 V”. In data set [9] (vs Fc+/Fc, scan rate 100 mV s^–1), the “E1/2^red” value is “–0.83 V”. In addition, the IC50 in data set [3] amounted to 15 ± 3 µM; in [4] it was 5.5 ± 0.6 µM; in data set [10], 7 ± 0.3 µM. Further, the “SR, selectivity ratio IC50 (MES-SA)/IC50 (MES-SA/Dx5)” value in data set [4] came out at 2.76. Besides, the “inhibition of colchicine binding % inhibition ± SD” value in data set [11] (5 μM inhibitor) is listed as 22 ± 2%; in [11] (25 μM inhibitor), 40 ± 3%. For the same compound, the “fold less potent than CA-4 in inhibiting [3H]colchicine binding” value in data set [11] (at the 5 μM concentration) was found to be 4.5 fold.

The IC50 is the concentration that inhibits the measured activity by half.
